{"source": "the supplement of paper PMC5412046", "note": "Structures can show the parent of a compound that is named as a salt.", "data": [{"tested_on": "SB.msgc-1", "test": "AC50 for growth inhibition (viability) (log10 M); higher = less potent", "details": "SB.msgc-1 (sporadic gastric cancer)", "summary_of_the_method": "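Gastric cancer cells derived from patients with hereditary or sporadic disease were seeded at 500 cells in 5 μL medium per 1536 well. A pintool delivered 23 nL of compound in DMSO, as 11 threefold dilutions from a final 46 μM. After 48 h, CellTiter-Glo was added for 30 min at room temperature and luminescence was read on a ViewLux. The log half-maximal activity concentration was taken from a four-parameter fit of viability normalised to DMSO, using only high-quality curve classes.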", "values": [{"smiles": "CC[C@H](C)C(=O)O[C@H]1C[C@@H](C)\\C=C2\\C=C/[C@H](C)[C@H](CC[C@@H]3C[C@@H](O)CC(=O)O3)[C@@H]12", "note": "[Lovastatin]", "AC50 for growth inhibition (log10 M)": -4.73}, {"smiles": "C/C=C/C[C@@H](C)C(=O)[C@H]1C(=O)N[C@@H](C(C)C)C(=O)N(C)CC(=O)N(C)[C@@H](CC(C)C)C(=O)N[C@@H](C(C)C)C(=O)N(C)[C@@H](CC(C)C)C(=O)N[C@@H](C)C(=O)N[C@H](C)C(=O)N(C)[C@@H](CC(C)C)C(=O)N(C)[C@@H](CC(C)C)C(=O)N(C)[C@@H](C(C)C)C(=O)N1C", "note": "[Valspodar]", "AC50 for growth inhibition (log10 M)": -5.08}, {"smiles": "CC(C)(C)OC(=O)CN(Cc1ccc(Cl)cc1)Cc1ccc([N+](=O)[O-])s1", "note": "[GSK-4112]", "AC50 for growth inhibition (log10 M)": -4.68}, {"smiles": "O=C([O-])C[C@H](O)C[C@H](O)/C=C/c1c(C2CC2)nc2ccccc2c1-c1ccc(F)cc1", "note": "[Pitavastatin calcium]", "AC50 for growth inhibition (log10 M)": -5.03}, {"smiles": "CNC(=O)c1cc(COc2nnc(Nc3ccc(Cl)cc3)c3ccoc23)ccn1", "note": "[Telatinib]", "AC50 for growth inhibition (log10 M)": -4.78}, {"smiles": "C[C@@H]1CCO[C@H]2CN\\3/C=C(/C(=O)NCC4=C(F)C=C(F)C=C4)C(=O)\\C(=C3C(=O)N12)O", "note": "[Dolutegravir]", "AC50 for growth inhibition (log10 M)": -4.78}, {"smiles": "C=C1C(=O)OC2/C=C(/C)CC/C=C(/C)CCC12", "note": "(stereo unspecified) [Costunolide]", "AC50 for growth inhibition (log10 M)": -4.68}, {"smiles": "Clc1ccc(C(Cn2ccnc2)OCc2ccsc2Cl)c(Cl)c1", "note": "(stereo unspecified) [Tioconazole]", "AC50 for growth inhibition (log10 M)": -4.63}, {"smiles": "COc1ccc(-c2c(-c3ccc(O)cc3O)n[nH]c2C)cc1", "note": "[PDHK RIKEN]", "AC50 for growth inhibition (log10 M)": -4.37}, {"smiles": "CC(C)n1c(/C=C/[C@H](O)C[C@H](O)CC(=O)[O-])c(-c2ccc(F)cc2)c2ccccc21", "note": "[Fluvastatin]", "AC50 for growth inhibition (log10 M)": -5.38}, {"smiles": "O=C1N\\2CCC3=C([NH]C4=C3C=CC=C4)C2=N/C5=CC=CC=C15", "note": "[Rutaecarpine]", "AC50 for growth inhibition (log10 M)": -4.78}, {"smiles": "CC(NC1=CC=CC=C1)C\\2=C\\C(=C/N3C(=O)\\C=C(/N=C23)N4CCOCC4)C", "note": "(stereo unspecified) [TGX-221]", "AC50 for growth inhibition (log10 M)": -5.58}, {"smiles": "CC[C@H]1/C=C\\C=C/C[C@@H](C)[C@H](O)[C@@](C)(O)C(=O)[C@@H](C)[C@H](O)[C@@H](C)C(=O)[C@@H](C)[C@H](O)[C@@H](C)/C=C/C(=O)O[C@@H]2[C@H](C)[C@H](CC1)O[C@]1(CC[C@H](C)[C@H](C[C@@H](C)O)O1)[C@H]2C", "note": "[Oligomycin A]", "AC50 for growth inhibition (log10 M)": -8.83}, {"smiles": "O=C(Nc1ccccc1)Nc1ccc(-c2ccc(C(=O)[C@@H]3CCC[C@H]3C(=O)O)cc2)cc1", "AC50 for growth inhibition (log10 M)": -4.63}, {"smiles": "CN(c1nccc(=O)[nH]1)C1CCN(c2nc3ccccc3n2Cc2ccc(F)cc2)CC1", "note": "[Mizolastine]", "AC50 for growth inhibition (log10 M)": -4.53}, {"smiles": "[O-]C(=O)C1=C(C(=C(Cl)C(=C1Cl)Cl)Cl)C/2=C/3\\C=C(I)/C(=O)/C(=C3OC4=C2C=C(I)C(=C4I)[O-])I", "note": "[Rose Bengal disodium]", "AC50 for growth inhibition (log10 M)": -4.93}, {"smiles": "CN1CCN(c2ccc([N+](=O)[O-])c3no[n+]([O-])c23)CC1", "AC50 for growth inhibition (log10 M)": -4.63}, {"smiles": "CN(C)C(=O)C(CCN1CCC(O)(c2ccc(Cl)cc2)CC1)(c1ccccc1)c1ccccc1", "note": "[Loperamide hydrochloride]", "AC50 for growth inhibition (log10 M)": -4.78}, {"smiles": "C[N]1C=C(C=N1)C2=CC=C3N=CC\\4=C(N(C(=O)\\C=C4)C5=CC6=C(CCN6C(=O)C=C)C=C5)C3=C2", "AC50 for growth inhibition (log10 M)": -4.98}, {"smiles": "CCCCC(F)(F)[C@@]1(O)CC[C@H]2[C@@H](CC(=O)[C@@H]2CCCCCCC(=O)O)O1", "note": "[Lubiprostone]", "AC50 for growth inhibition (log10 M)": -4.78}, {"smiles": "CO[C@@H](C(=O)N1Cc2[nH]nc(NC(=O)c3ccc(N4CCN(C)CC4)cc3)c2C1)c1ccccc1", "note": "[Danusertib]", "AC50 for growth inhibition (log10 M)": -5.53}, {"smiles": "CN(C)[C@H]\\1[C@@H]2[C@@H](O)[C@@H]\\3C(=C)C4=C(C(=CC=C4)O)C(=O)C3=C(\\O)[C@@]2(O)C(=O)\\C(=C1O)C(N)=O", "note": "[Methacycline hydrochloride]", "AC50 for growth inhibition (log10 M)": -4.73}, {"smiles": "Cc1ccc(Nc2cc(-c3cccc(N4C(=O)c5ccccc5C4=O)c3)ncn2)cc1N[S+](C)(=O)[O-]", "note": "[CDK9 inhibitor]", "AC50 for growth inhibition (log10 M)": -4.63}, {"smiles": "COc1cc(/C=C/C(=O)CC(=O)/C=C/c2ccc(O)c(OC)c2)ccc1O", "note": "[Curcumin]", "AC50 for growth inhibition (log10 M)": -4.37}, {"smiles": "C/C(=C\\C(=O)Nc1ccccc1C(=O)O)c1ccc2ccccc2c1", "note": "[BIBR 1532]", "AC50 for growth inhibition (log10 M)": -4.78}, {"smiles": "C[C@@]1(C(=O)Nc2ccc(F)nc2)CCCN1c1nc(Nc2cc(C3CC3)[nH]n2)c2cccn2n1", "AC50 for growth inhibition (log10 M)": -4.73}, {"smiles": "C[C@@H]1[C@H]\\2[C@H](O)[C@H]3[C@H](N(C)C)\\C(=C(C(N)=O)/C(=O)[C@@]3(O)\\C(=C2C(=O)C4=C(O)C=CC=C14)O)O", "note": "[Doxycycline]", "AC50 for growth inhibition (log10 M)": -4.68}, {"smiles": "CCOC(=O)c1c(CSc2ccccc2)n(C)c2cc(Br)c(O)c(CN(C)C)c12", "note": "[Arbidol]", "AC50 for growth inhibition (log10 M)": -4.63}, {"smiles": "Clc1ccc(C(c2ccc(Cl)cc2)[n+]2ccn(CC(OCc3ccc(Cl)cc3Cl)c3ccc(Cl)cc3Cl)c2)cc1", "note": "(stereo unspecified) [Calmidazolium chloride]", "AC50 for growth inhibition (log10 M)": -4.68}, {"smiles": "C/C=C(/C(=C/C)c1ccc(O)cc1)c1ccc(O)cc1", "note": "[Dienestrol]", "AC50 for growth inhibition (log10 M)": -5.08}, {"smiles": "COc1ccc2cc1Oc1ccc(cc1)C[C@H]1c3cc(c(OC)cc3CCN1C)Oc1c(OC)c(OC)cc3c1[C@H](C2)N(C)CC3", "note": "[Tetrandrine]", "AC50 for growth inhibition (log10 M)": -4.73}, {"smiles": "CC[C@@H]([C@H](C)O)n1ncn(-c2ccc(N3CCN(c4ccc(OCC5CO[C@@](Cn6cncn6)(c6ccc(F)cc6F)C5)cc4)CC3)cc2)c1=O", "note": "(stereo partly specified) [Posaconazole]", "AC50 for growth inhibition (log10 M)": -4.73}, {"smiles": "CC(=O)Oc1cc2c(s1)CCN(C(C(=O)C1CC1)c1ccccc1F)C2.Cl", "note": "(stereo unspecified) [Prasugrel]", "AC50 for growth inhibition (log10 M)": -6.08}, {"smiles": "Cn1cc(-c2ccncc2)c(-c2ccc(OCc3ccc4ccccc4n3)cc2)n1", "note": "[MP-10]", "AC50 for growth inhibition (log10 M)": -5.13}, {"smiles": "O=C(Nc1cccc(C(F)(F)F)c1)Nc1cc([S+](=O)([O-])NC2CC2)ccc1-c1ccsc1", "note": "[AGI-6780]", "AC50 for growth inhibition (log10 M)": -4.73}, {"smiles": "NC12CC3CC(CC(C3)C1)C2", "note": "[Amantadine hydrochloride]", "AC50 for growth inhibition (log10 M)": -4.68}, {"smiles": "CCOC(=O)C(C)OC1=CC=CC2=C1\\C=C/N(CC(=O)NC3=CC=C4OCCOC4=C3)C2=O", "note": "(stereo unspecified)", "AC50 for growth inhibition (log10 M)": -5.18}, {"smiles": "CC(C)c1noc(N2CCC(COc3ccc(-c4ccc([S+](C)(=O)[O-])cc4)nc3)CC2)n1", "AC50 for growth inhibition (log10 M)": -5.23}, {"smiles": "CCC[S+](=O)([O-])Nc1ccc(F)c(C(=O)c2c[nH]c3ncc(-c4ccc(Cl)cc4)cc23)c1F", "note": "[Vemurafenib]", "AC50 for growth inhibition (log10 M)": -4.78}, {"smiles": "COc1cc([C@@H]2c3cc4c(cc3[C@@H](O[C@@H]3O[C@@H]5CO[C@@H](C)O[C@H]5[C@H](O)[C@H]3O)[C@H]3COC(=O)[C@H]23)OCO4)cc(OC)c1O", "note": "[Etoposide]", "AC50 for growth inhibition (log10 M)": -5.33}, {"smiles": "COCCOC(=O)C/1=C(C)/NC/2=C(C1C3=CC=CC(=C3)O)/C(=O)CC(C2)C4=C(OC)C=CC=C4", "note": "(stereo unspecified) [HPI-1]", "AC50 for growth inhibition (log10 M)": -4.73}, {"smiles": "Fc1ccc(CNc2ncnc3ccc(F)cc23)cc1", "note": "[Spautin-1]", "AC50 for growth inhibition (log10 M)": -5.48}, {"smiles": "COc1cc(OC2CCN(C)CC2)ccc1Nc1ncc2c(n1)n(C1CCCC1)c(=O)n2C", "note": "[AZ-3146]", "AC50 for growth inhibition (log10 M)": -4.78}, {"smiles": "Cc1ccc(C(N)=O)cc1Nc1nccc(-c2cn(C(C)C)c3cnccc23)n1", "AC50 for growth inhibition (log10 M)": -5.28}, {"smiles": "COCCCN1CCC(NC(=O)c2cc(Cl)c(N)c3c2OCC3)CC1", "note": "[Prucalopride]", "AC50 for growth inhibition (log10 M)": -4.58}, {"smiles": "CCC[C@H](Nc1nc(-c2ccc(NC(=O)NCC)c(OC)c2)ncc1C)c1cccnc1", "note": "[Lexibulin hydrochloride]", "AC50 for growth inhibition (log10 M)": -7.83}, {"smiles": "O=C1NC(=O)/C(=C/c2cccc(C(F)(F)F)c2)S1", "note": "[SMI-4a]", "AC50 for growth inhibition (log10 M)": -4.83}, {"smiles": "CC(C)c1c(C(=O)Nc2ccccc2)c(-c2ccccc2)c(-c2ccc(F)cc2)n1CC[C@@H](O)C[C@@H](O)CC(=O)[O-]", "note": "[Atorvastatin calcium]", "AC50 for growth inhibition (log10 M)": -4.68}, {"smiles": "O=C(Nc1nc2cccc(-c3ccc(CN4CC[S+](=O)([O-])CC4)cc3)n2n1)C1CC1", "note": "[GPLG-0634]", "AC50 for growth inhibition (log10 M)": -4.73}, {"smiles": "CN(C)CCCC1(c2ccc(F)cc2)OCc2cc(C#N)ccc21", "note": "(stereo unspecified) [Citalopram hydrobromide]", "AC50 for growth inhibition (log10 M)": -4.83}, {"smiles": "CC(=O)[C@H]1CC[C@H]2[C@@H]3CCC4=CC(=O)CC[C@]4(C)[C@H]3CC[C@]12C", "note": "[Progesterone]", "AC50 for growth inhibition (log10 M)": -4.78}, {"smiles": "CC[S+](=O)([O-])c1cccc(-c2cc(C(=O)NC3CCN(C)CC3)c(C)c3[nH]c4ncc(C)cc4c23)c1", "note": "[TAK-901]", "AC50 for growth inhibition (log10 M)": -5.33}, {"smiles": "CCC[C@@H](NC(=O)[C@@H]1[C@H]2CCC[C@H]2CN1C(=O)[C@@H](NC(=O)[C@@H](NC(=O)c1cnccn1)C1CCCCC1)C(C)(C)C)C(=O)C(=O)NC1CC1", "note": "[Telaprevir]", "AC50 for growth inhibition (log10 M)": -4.78}, {"smiles": "C=C1C(=O)OC(CCCCCCCC)C1C(=O)O", "note": "(stereo unspecified) [C-75]", "AC50 for growth inhibition (log10 M)": -4.58}, {"smiles": "CC(C)[C@H]1C(=O)N[C@H](CO)Cc2c[nH]c3cccc(c23)N1C", "note": "[(-)-Indolactam V]", "AC50 for growth inhibition (log10 M)": -6.43}, {"smiles": "CCCC1OC2C[C@H]3[C@@H]4CCC5=CC(=O)C=C[C@]5(C)[C@H]4C(O)C[C@]3(C)[C@]2(C(=O)CO)O1", "note": "(stereo partly specified) [Budesonide]", "AC50 for growth inhibition (log10 M)": -4.68}, {"smiles": "COc1cc(C)c(/C=C/C(C)=C/C=C/C(C)=C/C(=O)O)c(C)c1C", "note": "[Acitretin]", "AC50 for growth inhibition (log10 M)": -4.73}, {"smiles": "CC1=CC=C2N=C(NC(=O)CS\\C3=N\\C4=C(\\SCC4)C(=O)N3C5=CC=CC=C5)SC2=C1", "note": "[IWP-2]", "AC50 for growth inhibition (log10 M)": -5.18}, {"smiles": "Clc1ccc(-c2nc3sccn3c2/C=N/OCc2ccc(Cl)c(Cl)c2)cc1", "note": "[CITCO]", "AC50 for growth inhibition (log10 M)": -4.73}, {"smiles": "OC(=O)C1=CC=C(NC2=NC3=C(C\\N=C(/C4=CC(=CC=C34)Cl)C5=C(F)C=CC=C5F)C=N2)C=C1", "note": "[MLN-8054]", "AC50 for growth inhibition (log10 M)": -4.78}, {"smiles": "COC(=O)c1ccc2c(c1)NC(=O)/C2=C(\\Nc1ccc(N(C)C(=O)CN2CCN(C)CC2)cc1)c1ccccc1", "note": "[Vargatef]", "AC50 for growth inhibition (log10 M)": -5.28}]}]}
